Measurements published in US20250163459A1, “IMPROVED CELL LINES AND METHODS FOR THE PRODUCTION OF ADENO-ASSOCIATED VECTORS” (CEVEC PHARMACEUTICALS GMBH, priority 2022, published 2025).

What was measured:
Format in all cases: cell-based, human
CAP cells [1] = assay: Encapsidated host cell DNA in AAV particles, ALU qPCR, CAP-derived producer cells; details: for encapsidated hcDNA: 30 μM and 60 μM, compared to vehicle treated controls (DMSO)
Method: (§1) At different time points post transfection, cell suspension was harvested, and cells were lysed by addition of Triton-X 100 (Sigma). After centrifugation, supernatants were diluted and incubated with TurboDNase (ThermoFisher Scientific), in order to remove non-encapsidated DNA contaminants. After inactivation of TurboDNAse, proteinase K was added to digest the viral capsid and subsequently amplify viral genomic DNA or hcDNA via ddPCR or qPCR.
(§2) The following primer/dual-labelled probe combinations (ordered at MWG, Eurofins and IDT, respectively, Table 1) directed against • a) the SV40 PolyA (quantification of viral titer) or • b) Alu sequences (quantification of hcDNA) • were used:
(§3) As standard for the viral genome, linearized transgene plasmid with a defined copy number was used. As standard for the hcDNA assay previously isolated CAP and HEK293 DNA (purified with DNeasy® Blood & Tissue Kit) was used.
AAV samples were treated with Turbo DNAse (Thermo Fischer Scientific) to digest the non-encapsidated DNA before the capsids were digested using Proteinase K. Proteinase K was inactivated by a heating step at 95° C. for 15 min. The samples were measured either by qPCR or ddPCR as follows:
The qPCR reaction contained the following components: 2×Brilliant Multiplex qPCR Master Mix (Agilent), nuclease-free H2O (Thermo Fisher Scientific), primer/probe mix and sample/standard. qPCR was run on an LightCycler 480 according to the manufacturer's instructions.
(§4) • Z-VAD-fmk inhibits caspases 3 and 8 which are upstream of the apoptotic nucleases DFF40 and ENDOG, respectively. • Z-VAD-fmk treatment should therefore reduce chromosomal fragmentation and decrease amount of packageably sized AAV cargo. • Transiently transfected CAP cells and HEK293 cells or full producers were cultured to produce AAV in the presence of absence of Z-VAD-fmk. • Resulting AAV particles were harvested from cell suspension on days 1, 2, 3, and 4 post induction. • Encapsidated host cell DNA was measured using a dedicated qPCR assay amplifying ALU repeats. • DNA fragmentation was determined using the DNA fragmentation assay by Chemometec.

CAP cell line = assay: Viable cell density and viability of induced AAV producer cells; details: for viable cell density and viability: induced AAV producer cells, versus untreated cells, Camptothecin 10 μM
Method: During routine cultivation, cells were diluted with fresh medium to a viable cell density of 0.5-1×10^6 cells/ml every 72 to 96 h. Viable cell density and viability were determined by trypan blue exclusion using a Vi-Cell Blu cell counter (Beckman Coulter).
• Various stable and transient AAV producer cells were induced with doxycycline and treated with different concentrations of the antiapoptotic pan-caspase inhibitor Z-VAD-fmk. • Cell viability was evaluated using the NucleoCounter NC-3000.

CAP cells [2] = assay: Sub-G1 DNA fragmentation assay (Chemometec, NucleoCounter NC-3000); details: during vector production; Camptothecin 10 μM over night on parental CAP cells
Text: A DNA fragmentation assay by Chemometec was applied using the NucleoCounter® NC-3000™ according to note No. 3003. Rev. 1.4.
In brief, cells were permeabilized with Ethanol, which allows low molecular weight DNA fragments (e.g., apoptotic DNA) to leak out, while large fragments and undamaged chromosomes are retained inside the nucleus. Total DNA content was stained by DAPI and detected using the NucleoCounter® NC-3000™. Here, cells typically fall into one of three clusters when plotted by signal intensity. The G1 peak represents the majority of cells with 2n DNA content. A second, smaller peak represents cells in G2 phase of the cell cycle, containing 4n. […]
as §4

HEK293 cells [3] = assay: Encapsidated host cell DNA in AAV particles, ALU qPCR, HEK293 cells; details: up to 40 μg/ml, compared to untreated controls, transient transfection
Method: as §1, §2, §3
AAV samples were treated with Turbo DNAse (Thermo Fischer Scientific) to digest the non-encapsidated DNA before the capsids were digested using Proteinase K. Proteinase K was inactivated by a heating step at 95° C. for 15 min. The samples were measured either by qPCR or ddPCR as follows: […]

stable producer cells = assay: Capsid levels by ELISA; details: in the presence of Z-VAD-fmk
Method: Inhibition of apoptotic DNA fragmentation reduces amount and packaging of hcDNA. • a) First page: sensitivity test for Sub-G1 DNA-fragmentation assay (Chemometec) using Camptothecin treatment (10 μM) on parental CAP cells over night. M1 population as % of global DNA stain. Second page: merged curves for apoptotic DNA fragmentation determined by same assay after 0 h (black curve), 18 h (dark grey), and 44 h (light grey), with Z-VAD-fmk (right) and in control samples (left, induction only) • b) First page: Relative share of encapsidated hcDNA [%] in transient and stable AAV8 production at 3 days post induction (transient transfection) and 5 days post induction (stable clone). […] Encapsidated hcDNA was measured in relation to the respective untreated controls, each set at 100%. Second page: fold difference of hcDNA concentration over time [hours] in an untreated AAV production using stable producer clone 1 (light grey line) normalized to 10 μg/ml of Z-VAD-fmk (dark grey line) determined by ALU qPCR. • c) First page: Relative Capsid levels determined by ELISA in stable producer clone 1 and transiently transfected HEK293 suspension cells at different Z-VAD-fmk concentrations and compared with Camptothecin. […] Second page: corresponding host cell DNA per capsid as determined by ALU qPCR normalized to untreated controls. […]

HEK293 cells [4] = assay: Endpoint PCR for detection of encapsidated hcDNA; details: transiently transfected HEK293 wt cells, cargo 1 or cargo 3
Method: Encapsidated hcDNA was prepared as described. PCR setup involved 3 μl sample as template for an endpoint PCR with 40 cylces using Q5 High-Fidelity DNA polymerase (NEB) according to the manufacturer's instructions. PCR samples were analyzed on a 2% agarose gel.

Molecule | encapsidated hcDNA (CAP cells [1]; stable inducible AAV producer cells, day 3 post induction) | encapsidated hcDNA (CAP cells [1]; stable inducible AAV producer cells, day 3 post induction, listed as SB 203580) | reduction of encapsidated hcDNA (CAP cells [1]; 60 μM, stable inducible AAV producer cells, compared to vehicle treated controls, day 3 post induction) | viable cell density and viability (CAP cell line) | amount of low molecular weight DNA (short DNA fragments) (CAP cells [2]) | increase in viability (CAP cell line; 80 h of treatment with 10 μg/ml, compared to untreated cells) [percentage points] | compensation of Camptothecin-reduced viability and VCD (CAP cell line; co-culturing, 10 μM Camptothecin+20 μM Z-VAD-fmk) | reduction in encapsidated hcDNA normalized to capsid levels (CAP cells [1]; stable producer cells, compared to controls) [fold] | packaging of host cell DNA (CAP cells [1]; up to 40 μg/ml, compared to untreated controls, fully transient approach and full producers) | packaging of host cell DNA (HEK293 cells [3]) | capsid levels (ELISA) (stable producer cells) | encapsidated hcDNA (genomic DNA sequence from HEK293 cells) (HEK293 cells [4])
C[S+]([O-])c1ccc(-c2nc(-c3ccc(F)cc3)c(-c3ccncc3)[nH]2)cc1 (centres unmarked) [Adezmapimod, 4-(4-fluorophenyl)-2-(4-methylsulfinylphenyl)-5-(4-pyridyl)-1H-imidazole] | reduced hcDNA encapsidation | reduces the encapsidated hcDNA | more than 75% |  |  |  |  |  |  |  |  | 
CC[C@@]1(O)C(=O)OCc2c1cc1n(c2=O)Cc2cc3ccccc3nc2-1 [Camptothecin] |  |  |  | reduced viability and VCD | increase in short DNA fragments |  |  |  |  |  |  | 
Z-Val-Ala-Asp fluoromethyl ketone [Z-VAD-fmk] |  |  |  | increased viable cell density and viability | reduced the amount of low molecular weight DNA | ~10 | could be compensated | ~10 | dramatically decreased packaging of host cell DNA | dramatically decreased packaging of host cell DNA | slightly increased | undetectable
